Consider 6 compounds from article PMC6984391, “Anion carriers as potential treatments for cystic fibrosis: transport in cystic fibrosis cells, and additivity to channel-targeting drugs” (Chemical Science, 2019).

The assay in a line: Cl-/NO3- exchange in LUVs with preincorporated anionophore (lucigenin method). It is filed as biochemical. Conditions: transporter preincorporated in LUVs (70% POPC + 30% cholesterol), 25 mM NaCl gradient, 225 mM NaNO3; new compound or new data. The procedure: The four new anionophores were tested for affinity to Cl^– (in CHCl3 and DMSO, with tetra-alkylammonium counter-ions), and for anion transport (Cl^–/NO3^– exchange) when preloaded into 200 nm large unilamellar vesicles (LUVs). The latter assay was performed using the well-established “lucigenin method”[30] in which Cl^– influx into vesicles is followed through quenching of fluorescence from the halide-sensitive fluorophore lucigenin. The results are listed in Table 1, accompanied by corresponding values for the previously-reported compounds where available. […] In this test, anion transport by anionophores delivered externally to LUVs is compared with their action when preloaded into LUV membranes.[24],[29],[32]
3. Transport studies in vesicles
Transport measurements in vesicles with preincorporated anionophores.
1-Palmitoyl-2-oleoyl-sn-glycero-3-phosphocholine (POPC) was obtained from Avanti® Polar Lipids, Inc. An extrusion apparatus and 200 nm polycarbonate membranes were obtained from GC Technology Ltd. All lipid and receptor solutions were prepared using chloroform that had been deacidified by passage through a flash chromatography column containing basic alumina, and all aqueous solutions were prepared using deionised water that had been passed through a Millipore filtration system.
POPC and cholesterol solutions (~10 mM) in deacidified chloroform were combined with a solution of transporter in methanol or deacidified chloroform in a 5 mL round bottomed flask.
Volumes of the aliquots were calculated from the concentrations of the lipid solution to obtain a POPC to cholesterol ratio of 7:3 (for instance by combining 4.20 µmol POPC and 1.80 µmol cholesterol). The ratio of anionophore to lipid (POPC + cholesterol) was either 1:2500 or 1:25000, as specified in the experiments. The solvents from the lipid/receptor mixture were evaporated under a stream of N2 and the lipid film was dried under high vacuum for 1 h. The residue was hydrated with 500 µL of an aqueous solution of 10,10'-dimethyl-9,9'-biacridinium nitrate (lucigenin, 0.8 mM) and NaNO3 (225 mM), sonicated for 30 s and stirred for 1 h to give heterogeneous vesicles. Multilamellar vesicles were disrupted by 10 freeze-thaw cycles and then the solution was diluted to 1 mL (by adding 0.5 mL of 225 mM NaNO3) and carefully extruded (29 times) through a polycarbonate membrane (200 nm pore size) to give a uniform distribution of LUVs with an average diameter of ~200 nm.2 The external lucigenin was removed by passing the solution though a size exclusion column (containing ~2 g Sephadex 50G, eluted with 225 mM NaNO3). The collected vesicles were further diluted with NaNO3 solution (225 mM) to obtain a vesicle solution with 0.4 mM lipid concentration. 3.00 mL of this vesicle solution was placed in a quartz cuvette with a small stir bar and the fluorescence intensity (excitation at 450 nm, emission at 535 nm) was measured over time at 25 °C, using a PerkinElmer LS45 fluorescence spectrometer. 75 µL of aqueous NaCl (1.0 M in 225 mM NaNO3, to give an overall external chloride concentration of 25 mM) was added ~30 seconds after the start of the experiment and the fluorescence intensity was measured for another 14 […]
Fluorescence data were collected for at least four replicate experiments. The plateau (before addition of chloride) and the vertical drop (the first 1-2.5 seconds after chloride addition, due to quenching of external lucigenin) were removed. Next the data were normalized: all fluorescence values (F) were divided by the fluorescence value before addition of chloride (F0).
Initial rates (I) were obtained from fluorescence -decay curves (0-500 s) by fitting their inverse (F0/F) to a double exponential decay function:
Differentiating this gives F = abe−bt + cde−dt […]
and substituting t = 0 gives the following equation for initial rate: I = ab + cd Specific initial rates [I] were obtained by dividing the initial rates by the anionophore to lipid […]

`CCCCCCCCOC(=O)[C@]12CC[C@@H](NC(=S)Nc3ccc([N+](=O)[O-])cc3)C[C@@H]1C[C@@H](NC(=S)Nc1ccc([N+](=O)[O-])cc1)CC2` [Compound 13]: the “Specific initial rate [I]” value is 370 s^–1. `FC(F)(F)c1cc(NC(=S)NCCN(CCNC(=S)Nc2cc(C(F)(F)F)cc(C(F)(F)F)c2)CCNC(=S)Nc2cc(C(F)(F)F)cc(C(F)(F)F)c2)cc(C(F)(F)F)c1` [Compound 19]: the “Specific initial rate [I]” value was 590 ^b s^–1. Regarding `CCOC(=O)[C@]12CC[C@@H](NC(=S)Nc3ccc([N+](=O)[O-])cc3)C[C@@H]1C[C@@H](NC(=S)Nc1ccc([N+](=O)[O-])cc1)CC2` [Compound 12], the “Specific initial rate [I]” value is 310 s^–1. Take `FC(F)(F)c1ccc(NC(=S)NCCN(CCNC(=S)Nc2ccc(C(F)(F)F)cc2)CCNC(=S)Nc2ccc(C(F)(F)F)cc2)cc1` [Compound 18]: the “Specific initial rate [I]” value is on record as 36 ^b s^–1. For `COCCOCCOC(=O)[C@]12CC[C@@H](NC(=O)Nc3ccc(C(F)(F)F)cc3)C[C@@H]1C[C@@H](NC(=O)Nc1ccc(C(F)(F)F)cc1)CC2` [Compound 9] the value was 9 s^–1. On to `COCCOCCOC(=O)[C@]12CC[C@@H](NC(=O)Nc3cc(C(F)(F)F)cc(C(F)(F)F)c3)C[C@@H]1C[C@@H](NC(=O)Nc1cc(C(F)(F)F)cc(C(F)(F)F)c1)CC2` [Compound 10], for which the “Specific initial rate [I]” value worked out at 19 s^–1.
